Species: Rattus norvegicus
Test: Open TG-GATES - Regimen: Single
Type: toxicity, organism-based, Sprague-Dawley
Set-up: regimen Single, gender Male, age 6 weeks
Conditions: in vivo, po, route gavage; for gamma-GTP / ALP / AST / BUN / CRE / Ca / Cl / DBIL / GLC / IP / K / LDH / Na / PL / RALB / TBIL / TC / TG / TP: tissue Plasma; for APTT / Bas / Eos / Fbg / Ht / MCH / MCHC / MCV / Mono / PT / Plat / RBC / Ret / WBC: tissue Blood; for KIDNEY_L / KIDNEY_R / KIDNEY_TOTAL: tissue Kidney; for LIVER: tissue Liver

CC(=O)Nc1nnc(S(N)(=O)=O)s1 [ACETAZOLAMIDE]
gamma-GTP (0 mg/kg, 24 h, dose level Control): 2.2 IU/L
TERMINAL_BW (60 mg/kg, 3 h, dose level Low): 208.4 g
APTT (60 mg/kg, 3 h, dose level Low): 22.2 s
Bas (60 mg/kg, 3 h, dose level Low): 0%
Eos (60 mg/kg, 3 h, dose level Low): 1%
Fbg (60 mg/kg, 3 h, dose level Low): 313.4 mg/dL
Ht (60 mg/kg, 3 h, dose level Low): 40.8%
MCH (60 mg/kg, 3 h, dose level Low): 21.4 pg
MCHC (60 mg/kg, 3 h, dose level Low): 32.1%
MCV (60 mg/kg, 3 h, dose level Low): 66.9 fL
Mono (60 mg/kg, 3 h, dose level Low): 1.6%
PT (60 mg/kg, 3 h, dose level Low): 16.8 s
Plat (60 mg/kg, 3 h, dose level Low): 125.7 x10_4/uL
RBC (60 mg/kg, 3 h, dose level Low): 610.4 x10_4/ul
Ret (60 mg/kg, 3 h, dose level Low): 8.6%
WBC (60 mg/kg, 3 h, dose level Low): 69.8 x10_2/uL
KIDNEY_L (60 mg/kg, 3 h, dose level Low): 0.9 g
KIDNEY_R (60 mg/kg, 3 h, dose level Low): 1 g
KIDNEY_TOTAL (60 mg/kg, 3 h, dose level Low): 1.9 g
LIVER (60 mg/kg, 3 h, dose level Low): 9.5 g
ALP (60 mg/kg, 3 h, dose level Low): 1527.8 IU/L
AST (60 mg/kg, 3 h, dose level Low): 75.8 IU/L
BUN (60 mg/kg, 3 h, dose level Low): 12.2 mg/dL
CRE (60 mg/kg, 3 h, dose level Low): 0.2 mg/dL
Ca (60 mg/kg, 3 h, dose level Low): 11.1 mg/dL
Cl (60 mg/kg, 3 h, dose level Low): 111.6 meq/L
DBIL (60 mg/kg, 3 h, dose level Low): 0 mg/dL
GLC (60 mg/kg, 3 h, dose level Low): 184.6 mg/dL
IP (60 mg/kg, 3 h, dose level Low): 9.6 mg/dL
K (60 mg/kg, 3 h, dose level Low): 3.9 meq/L
LDH (60 mg/kg, 3 h, dose level Low): 212.8 IU/L
Na (60 mg/kg, 3 h, dose level Low): 141.4 meq/L
PL (60 mg/kg, 3 h, dose level Low): 142.2 mg/dL
RALB (60 mg/kg, 3 h, dose level Low): 3.4 g/dL
TBIL (60 mg/kg, 3 h, dose level Low): 0.018 mg/dL
TC (60 mg/kg, 3 h, dose level Low): 88 mg/dL
TG (60 mg/kg, 3 h, dose level Low): 28.2 mg/dL
TP (60 mg/kg, 3 h, dose level Low): 5.9 g/dL
gamma-GTP (60 mg/kg, 3 h, dose level Low): 1.4 IU/L
TERMINAL_BW (60 mg/kg, 6 h, dose level Low): 202.8 g
APTT (60 mg/kg, 6 h, dose level Low): 23 s
Bas (60 mg/kg, 6 h, dose level Low): 0%
Eos (60 mg/kg, 6 h, dose level Low): 1%
Fbg (60 mg/kg, 6 h, dose level Low): 336.6 mg/dL
Ht (60 mg/kg, 6 h, dose level Low): 42.5%
MCH (60 mg/kg, 6 h, dose level Low): 20.9 pg
MCV (60 mg/kg, 6 h, dose level Low): 65.6 fL
Mono (60 mg/kg, 6 h, dose level Low): 3%
PT (60 mg/kg, 6 h, dose level Low): 16.8 s
Plat (60 mg/kg, 6 h, dose level Low): 120.9 x10_4/uL
RBC (60 mg/kg, 6 h, dose level Low): 648 x10_4/ul
Ret (60 mg/kg, 6 h, dose level Low): 8.7%
WBC (60 mg/kg, 6 h, dose level Low): 98.5 x10_2/uL
KIDNEY_L (60 mg/kg, 6 h, dose level Low): 0.9 g
KIDNEY_R (60 mg/kg, 6 h, dose level Low): 0.9 g
KIDNEY_TOTAL (60 mg/kg, 6 h, dose level Low): 1.8 g
LIVER (60 mg/kg, 6 h, dose level Low): 8.4 g
ALP (60 mg/kg, 6 h, dose level Low): 1445.8 IU/L
AST (60 mg/kg, 6 h, dose level Low): 72.8 IU/L
BUN (60 mg/kg, 6 h, dose level Low): 11.8 mg/dL
CRE (60 mg/kg, 6 h, dose level Low): 0.2 mg/dL
Ca (60 mg/kg, 6 h, dose level Low): 11 mg/dL
Cl (60 mg/kg, 6 h, dose level Low): 113 meq/L
DBIL (60 mg/kg, 6 h, dose level Low): 0 mg/dL
GLC (60 mg/kg, 6 h, dose level Low): 187.4 mg/dL
IP (60 mg/kg, 6 h, dose level Low): 9.6 mg/dL
K (60 mg/kg, 6 h, dose level Low): 4.2 meq/L
LDH (60 mg/kg, 6 h, dose level Low): 177.4 IU/L
Na (60 mg/kg, 6 h, dose level Low): 139.4 meq/L
PL (60 mg/kg, 6 h, dose level Low): 138.2 mg/dL
RALB (60 mg/kg, 6 h, dose level Low): 3.3 g/dL
TBIL (60 mg/kg, 6 h, dose level Low): 0.024 mg/dL
TC (60 mg/kg, 6 h, dose level Low): 83 mg/dL
TG (60 mg/kg, 6 h, dose level Low): 27.2 mg/dL
TP (60 mg/kg, 6 h, dose level Low): 5.9 g/dL
gamma-GTP (60 mg/kg, 6 h, dose level Low): 1 IU/L
TERMINAL_BW (60 mg/kg, 9 h, dose level Low): 205.8 g
APTT (60 mg/kg, 9 h, dose level Low): 21.4 s
Bas (60 mg/kg, 9 h, dose level Low): 0%
Eos (60 mg/kg, 9 h, dose level Low): 0.8%
Fbg (60 mg/kg, 9 h, dose level Low): 337.8 mg/dL
Ht (60 mg/kg, 9 h, dose level Low): 41.7%
MCH (60 mg/kg, 9 h, dose level Low): 20.5 pg
MCHC (60 mg/kg, 9 h, dose level Low): 31.4%
MCV (60 mg/kg, 9 h, dose level Low): 65.2 fL
Mono (60 mg/kg, 9 h, dose level Low): 1.8%
PT (60 mg/kg, 9 h, dose level Low): 16.7 s
Plat (60 mg/kg, 9 h, dose level Low): 125.8 x10_4/uL
RBC (60 mg/kg, 9 h, dose level Low): 640.2 x10_4/ul
Ret (60 mg/kg, 9 h, dose level Low): 8.7%
WBC (60 mg/kg, 9 h, dose level Low): 76.9 x10_2/uL
KIDNEY_L (60 mg/kg, 9 h, dose level Low): 0.9 g
KIDNEY_R (60 mg/kg, 9 h, dose level Low): 0.9 g
KIDNEY_TOTAL (60 mg/kg, 9 h, dose level Low): 1.8 g
LIVER (60 mg/kg, 9 h, dose level Low): 8.5 g
ALP (60 mg/kg, 9 h, dose level Low): 1425.8 IU/L
AST (60 mg/kg, 9 h, dose level Low): 59.8 IU/L
BUN (60 mg/kg, 9 h, dose level Low): 13.8 mg/dL
CRE (60 mg/kg, 9 h, dose level Low): 0.2 mg/dL
Ca (60 mg/kg, 9 h, dose level Low): 11.1 mg/dL
Cl (60 mg/kg, 9 h, dose level Low): 112.8 meq/L
DBIL (60 mg/kg, 9 h, dose level Low): 0 mg/dL
GLC (60 mg/kg, 9 h, dose level Low): 190.8 mg/dL
IP (60 mg/kg, 9 h, dose level Low): 9.5 mg/dL
K (60 mg/kg, 9 h, dose level Low): 4 meq/L
LDH (60 mg/kg, 9 h, dose level Low): 158.2 IU/L
Na (60 mg/kg, 9 h, dose level Low): 140 meq/L
PL (60 mg/kg, 9 h, dose level Low): 133.4 mg/dL
RALB (60 mg/kg, 9 h, dose level Low): 3.3 g/dL
TBIL (60 mg/kg, 9 h, dose level Low): 0.026 mg/dL
TC (60 mg/kg, 9 h, dose level Low): 81.8 mg/dL
TG (60 mg/kg, 9 h, dose level Low): 35.4 mg/dL
TP (60 mg/kg, 9 h, dose level Low): 5.9 g/dL
gamma-GTP (60 mg/kg, 9 h, dose level Low): 1 IU/L
TERMINAL_BW (60 mg/kg, 24 h, dose level Low): 217.9 g
APTT (60 mg/kg, 24 h, dose level Low): 20.2 s
Bas (60 mg/kg, 24 h, dose level Low): 0%
Eos (60 mg/kg, 24 h, dose level Low): 0.8%
Fbg (60 mg/kg, 24 h, dose level Low): 303.8 mg/dL
Ht (60 mg/kg, 24 h, dose level Low): 40.5%
MCH (60 mg/kg, 24 h, dose level Low): 20.9 pg
MCHC (60 mg/kg, 24 h, dose level Low): 33.3%
MCV (60 mg/kg, 24 h, dose level Low): 62.6 fL
Mono (60 mg/kg, 24 h, dose level Low): 1.6%
PT (60 mg/kg, 24 h, dose level Low): 16.7 s
Plat (60 mg/kg, 24 h, dose level Low): 117.7 x10_4/uL
RBC (60 mg/kg, 24 h, dose level Low): 647 x10_4/ul
Ret (60 mg/kg, 24 h, dose level Low): 7.7%
WBC (60 mg/kg, 24 h, dose level Low): 86.4 x10_2/uL
KIDNEY_L (60 mg/kg, 24 h, dose level Low): 0.9 g
KIDNEY_R (60 mg/kg, 24 h, dose level Low): 1 g
KIDNEY_TOTAL (60 mg/kg, 24 h, dose level Low): 1.9 g
LIVER (60 mg/kg, 24 h, dose level Low): 9.8 g
ALP (60 mg/kg, 24 h, dose level Low): 1708.2 IU/L
AST (60 mg/kg, 24 h, dose level Low): 61.2 IU/L
BUN (60 mg/kg, 24 h, dose level Low): 20 mg/dL
CRE (60 mg/kg, 24 h, dose level Low): 0.1 mg/dL
Ca (60 mg/kg, 24 h, dose level Low): 10.9 mg/dL
Cl (60 mg/kg, 24 h, dose level Low): 106.8 meq/L
DBIL (60 mg/kg, 24 h, dose level Low): 0 mg/dL
GLC (60 mg/kg, 24 h, dose level Low): 179.4 mg/dL
IP (60 mg/kg, 24 h, dose level Low): 7.5 mg/dL
K (60 mg/kg, 24 h, dose level Low): 4 meq/L
LDH (60 mg/kg, 24 h, dose level Low): 156.8 IU/L
Na (60 mg/kg, 24 h, dose level Low): 142.6 meq/L
PL (60 mg/kg, 24 h, dose level Low): 136.2 mg/dL
RALB (60 mg/kg, 24 h, dose level Low): 3.2 g/dL
TBIL (60 mg/kg, 24 h, dose level Low): 0.01 mg/dL
TC (60 mg/kg, 24 h, dose level Low): 73.2 mg/dL
TG (60 mg/kg, 24 h, dose level Low): 109.6 mg/dL

Source: ChEMBL document CHEMBL3885861, “Open TG-GATES”
